The values below come from patent US6706664B1, “Benzoxazole compounds, process for the preparation thereof and herbicides” (UBE Industries, Ltd., priority 1999, dated 2004).

Common to all, as to parameters: key: 0: normal development; 1: Less damaged; 2: Slightly damaged; 3: Moderately damaged; 4: Severely damaged; 5: All killed
Experiment [1] deals with blackgrass. The experiment can be described thus: Foliar spread test for upland field. The note with it: foliar spray 500 ppm, 3 weeks, rank vs non-treated. The class given is in vivo, Alopecurus aegualis. An excerpt: (§1) (0: normal development, 1: Less damaged, 2: Slightly damaged, 3: Moderately damaged, 4: Severely damaged, 5: All killed).
(§2) Wagner pots, each having an area of 1/5000 are, were packed with volcanic ash soil and then each seed of corn, soybean, cotton, wheat, solgum, sugar beat, Large crabgrass, barnyardgrass, green foxtail, blackgrass, annual bluegrass, common lambsquartes, livid amaranth, velvetleaf and morning glory was planted, covered with soil and grown in a glass house at an average temperature of […] for about 2 weeks.
(§3) Each wettable powder of the desired compounds (I) shown in Table 1 prepared in accordance with Example 2 was diluted to 500 ppm with water containing a surfactant (0.5%) and then uniformly sprayed on the above respective plants.
(§4) After these plants were controlled in a glass house at an average temperature of 25° C. for 3 weeks, the herbicidal effects thereof were investigated.
(§5) The herbicidal effects were evaluated according to the evaluation method described in the above (1).

Experiment [2] has as its system livid amaranth. The experiment is described as follows: Foliar spread test for upland field. In kind it is in vivo, Amaranthus lividus. The settings on record: foliar spray 500 ppm, 3 weeks, rank vs non-treated. In outline:
(§6)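 Crops and weeds grown about 2 weeks in volcanic ash soil in a glasshouse, then sprayed with wettable-powder formulations diluted to 500 ppm in water with 0.5% surfactant. After 3 weeks at 25 °C, injury scored visually 0 (normal) to 5 (all killed).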

Experiment [3] has as its system green foxtail. The experiment can be described thus: Foliar spread test for upland field. In kind it is in vivo, Setaria viridis. The note with it: foliar spray 500 ppm, 3 weeks, rank vs non-treated.
Excerpt: as §1, §2, §3, §4, §5

Experiment [4] deals with velvetleaf. The experiment can be described thus: Foliar spread test for upland field. The class given is in vivo, Abutilon theophrasti. The settings on record: foliar spray 500 ppm, 3 weeks, rank vs non-treated. In outline: as §6
Experiment [5] relates to Large crabgrass. The experiment can be described thus: Foliar spread test for upland field. The class given is in vivo, Digitaria adscendens. The note with it: foliar spray 500 ppm, 3 weeks, rank vs non-treated.
Excerpt: as §1, §2, §3, §4, §5

For experiment [6], the system named is cotton. The experiment is described as follows: Foliar spread test for upland field. In kind it is in vivo. The note with it: foliar spray 500 ppm, 3 weeks, rank vs non-treated. In a few lines:
(§7)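 Wettable powders at 500 ppm, with 0.5% surfactant, were sprayed uniformly over plants raised for roughly 2 weeks in glasshouse pots of volcanic ash soil. Herbicidal damage rated on a 0–5 scale (5 = all killed) after a further 3 weeks at an average 25 °C.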

In experiment [7] the test system is soybean. The experiment can be described thus: Foliar spread test for upland field. The settings on record: foliar spray 500 ppm, 3 weeks, rank vs non-treated. In kind it is in vivo. In a few lines: as §7
The test system of experiment [8] is sugar beat. The experiment is described as follows: Foliar spread test for upland field. The settings on record: foliar spray 500 ppm, 3 weeks, rank vs non-treated. The class given is in vivo. In a few lines:
as §7

Experiment [9] has as its system corn. The experiment is described as follows: Foliar spread test for upland field. The class given is in vivo. The settings on record: foliar spray 500 ppm, 3 weeks, rank vs non-treated. In a few lines:
as §7

Experiment [10] deals with wheat. The experiment is described as follows: Foliar spread test for upland field. The class given is in vivo. The settings on record: foliar spray 500 ppm, 3 weeks, rank vs non-treated. In a few lines:
as §7

The subject of experiment [11] is solgum. The experiment can be described thus: Foliar spread test for upland field. In kind it is in vivo. The note with it: foliar spray 500 ppm, 3 weeks, rank vs non-treated. In outline:
as §7

The test system of experiment [12] is common lambsquartes. The experiment can be described thus: Foliar spread test for upland field. The class given is in vivo, Chenopodium album. The settings on record: foliar spray 500 ppm, 3 weeks, rank vs non-treated. In a few lines:
as §6

The test system of experiment [13] is common lambsquartes. The experiment is described as follows: Soil treatment test for upland field. The settings on record: 500 g/ha, glass house 25° C., 3 weeks. In kind it is in vivo, Chenopodium album. In a few lines:
(§8)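 Compounds were formulated as wettable powders and applied pre-emergence to the surface of freshly sown alluvial soil at 500 g/ha. After three weeks in a glass house averaging 25° C, damage was rated from 0 (normal development) to 5 (all killed).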

Experiment [14] has as its system soybean. The experiment can be described thus: Soil treatment test for upland field. The settings on record: 500 g/ha, glass house 25° C., 3 weeks. In kind it is in vivo. In a few lines:
as §8

Experiment [15] relates to sugar beat. The experiment is described as follows: Soil treatment test for upland field. The class given is in vivo. The settings on record: 500 g/ha, glass house 25° C., 3 weeks. In a few lines: as §8
Experiment [16] deals with corn. The experiment is described as follows: Soil treatment test for upland field. The settings on record: 500 g/ha, glass house 25° C., 3 weeks. The class given is in vivo. In outline:
as §8

The test system of experiment [17] is wheat. The experiment can be described thus: Soil treatment test for upland field. The class given is in vivo. The note with it: 500 g/ha, glass house 25° C., 3 weeks. In a few lines:
as §8

The subject of experiment [18] is solgum. The experiment is described as follows: Soil treatment test for upland field. In kind it is in vivo. The settings on record: 500 g/ha, glass house 25° C., 3 weeks. In outline: as §8
Experiment [19] has as its system green foxtail. The experiment is described as follows: Soil treatment test for upland field. In kind it is in vivo, Setaria viridis. The note with it: 500 g/ha, glass house 25° C., 3 weeks. In a few lines: as §8
Experiment [20] concerns annual bluegrass. The experiment can be described thus: Foliar spread test for upland field. The class given is in vivo, Poa annua. The note with it: foliar spray 500 ppm, 3 weeks, rank vs non-treated.
Excerpt: as §1, §2, §3, §4, §5

The test system of experiment [21] is livid amaranth. The experiment can be described thus: Soil treatment test for upland field. The class given is in vivo, Amaranthus lividus. The settings on record: 500 g/ha, glass house 25° C., 3 weeks. In outline: as §8
Another experiment deals with morning glory. The experiment can be described thus: Foliar spread test for upland field. The class given is in vivo, Ipomoea spps. The settings on record: foliar spray 500 ppm, 3 weeks, rank vs non-treated.
Excerpt: as §1, §2, §3, §4, §5

Experiment [22] concerns barnyardgrass. The experiment is described as follows: Soil treatment test for upland field. The note with it: 500 g/ha, glass house 25° C., 3 weeks. The class given is in vivo, Echinochloa crusgalli. In a few lines: as §8
Experiment [23] deals with Large crabgrass. The experiment is described as follows: Soil treatment test for upland field. In kind it is in vivo, Digitaria adscendens. The settings on record: 500 g/ha, glass house 25° C., 3 weeks. In outline:
as §8

The test system of experiment [24] is annual bluegrass. The experiment can be described thus: Soil treatment test for upland field. In kind it is in vivo, Poa annua. The note with it: 500 g/ha, glass house 25° C., 3 weeks. In outline: as §8
Experiment [25] concerns blackgrass. The experiment is described as follows: Soil treatment test for upland field. In kind it is in vivo, Alopecurus aegualis. The settings on record: 500 g/ha, glass house 25° C., 3 weeks. In a few lines:
as §8

Experiment [26] relates to barnyardgrass. The experiment is described as follows: Foliar spread test for upland field. The class given is in vivo, Echinochloa crusgalli. The note with it: foliar spray 500 ppm, 3 weeks, rank vs non-treated.
Excerpt: as §1, §2, §3, §4, §5

For experiment [27], the system named is velvetleaf. The experiment is described as follows: Soil treatment test for upland field. The note with it: 500 g/ha, glass house 25° C., 3 weeks. The class given is in vivo, Abutilon theophrasti. In outline: as §8
The subject of experiment [28] is cotton. The experiment can be described thus: Soil treatment test for upland field. The settings on record: 500 g/ha, glass house 25° C., 3 weeks. In kind it is in vivo. In a few lines: as §8

SMILES strings stand for the structures.

Take `CCC(Oc1ccc(F)c(C(F)(F)F)c1)c1nc2cc(NC(=O)C(F)(F)F)ccc2o1` (stereo not drawn) [Compound 518]: the “Effects Blackgrass” value in the experiment on blackgrass [1] is reported as 2. Moreover, the “Effects Livid amaranth” value with livid amaranth [2] was 2. The “Effects Green foxtail” value with green foxtail [3] came to 5. Also, in the experiment with velvetleaf [4], the “Effects Velvetleaf” value was determined as 3. In addition, the “Effects Large crabgrass” value in the experiment on Large crabgrass [5] turned out to be 2. Besides, the “Effects Cotton” value with cotton [6] came out at 0. The “Effects Soybean” value in the experiment with soybean [7] was 0. In the experiment with sugar beat [8], the “Effects Sugar beat” value is 5. The “Effects Corn” value in the experiment with corn [9] is recorded as 0. Also, the “Effects Wheat” value in the experiment with wheat [10] is 0. Moreover, the “Effects Solgum” value with solgum [11] was 0. In the experiment on common lambsquartes [12], the “Effects Common lambsquarters” value is given as 2.
`CC(Oc1cccc(C(F)(F)F)c1)c1nc2ccc(C(F)(F)F)cc2o1` (stereo not drawn) [Compound 86]: the “Effects Common lambsquarters” value worked out at 1 in the experiment on common lambsquartes [13] and 2 in the experiment with common lambsquartes [12]. In addition, the “Effects Soybean” value was determined as 0 with soybean [14] and 2 in the experiment with soybean [7]. Further, the “Effects Sugar beat” value in the experiment on sugar beat [15] and in the experiment with sugar beat [8] was 2 throughout. Further, the “Effects Corn” value in the experiment with corn [16] is on record as 0; in the experiment with corn [9], 1. The “Effects Wheat” value in the experiment on wheat [17] was 0; in the experiment with wheat [10], 1. For the same molecule, the “Effects Solgum” value in the experiment with solgum [18] and in the experiment on solgum [11] was 0 throughout. Further, the “Effects Green foxtail” value came to 4 with green foxtail [19] and 2 in the experiment on green foxtail [3]. For the same molecule, the “Effects Annual bluegrass” value with annual bluegrass [20] and in the experiment on annual bluegrass [24] was 1 each time. For the same molecule, the “Effects Blackgrass” value in the experiment on blackgrass [1] is 1. The figures for the “Effects Livid amaranth” value with livid amaranth [21] and in the experiment with livid amaranth [2] were 5 and 3, respectively. In the experiment on morning glory, the “Effects Morning glory” value amounted to 3. In addition, the “Effects Barnyardgrass” value in the experiment on barnyardgrass [22] is listed as 3. Besides, the “Effects Velvetleaf” value with velvetleaf [4] turned out to be 1. In addition, the results for the “Effects Large crabgrass” value in the experiment on Large crabgrass [23] and in the experiment on Large crabgrass [5] were 5 and 2, respectively. Also, in the experiment on cotton [6], the “Effects Cotton” value came out at 1.
On to `CCC(Oc1ccc(Cl)c(C(F)(F)F)c1)c1nc2cc(C#N)c(Cl)cc2o1` (stereo not drawn) [Compound 534], for which the “Effects Common lambsquarters” value in the experiment on common lambsquartes [13] is listed as 5; in the experiment with common lambsquartes [12], 4. In addition, the “Effects Blackgrass” value with blackgrass [25] was determined as 4; in the experiment on blackgrass [1] it was 3. In addition, the “Effects Soybean” value with soybean [14] was 2. In addition, the “Effects Sugar beat” value in the experiment with sugar beat [15] and with sugar beat [8] was 5 throughout. The “Effects Corn” value in the experiment with corn [16] and in the experiment on corn [9] was 2 throughout. The “Effects Wheat” value turned out to be 1 with wheat [17] and 2 in the experiment on wheat [10]. Besides, the entries for the “Effects Solgum” value with solgum [18] and with solgum [11] were 1 and 2, respectively. Moreover, the “Effects Green foxtail” value in the experiment on green foxtail [19] is 5. For the same molecule, the “Effects Annual bluegrass” value with annual bluegrass [20] was determined as 4; in the experiment on annual bluegrass [24] it was 5. Also, the “Effects Livid amaranth” value with livid amaranth [21] and with livid amaranth [2] was 5 throughout. In addition, in the experiment on morning glory, the “Effects Morning glory” value is 5. Besides, the “Effects Barnyardgrass” value in the experiment with barnyardgrass [22] was determined as 4; with barnyardgrass [26], 2. For the same molecule, the “Effects Velvetleaf” value in the experiment with velvetleaf [4] and with velvetleaf [27] was 5 in each case. For the same molecule, the “Effects Large crabgrass” value is recorded as 5 with Large crabgrass [23] and 2 in the experiment with Large crabgrass [5].
For `CCCC(Oc1ccc(F)c(C(F)(F)F)c1)c1nc2cc(S(C)(=O)=O)c(C)cc2o1` (stereo not drawn) [Compound 488], the “Effects Common lambsquarters” value came to 4 in the experiment with common lambsquartes [13] and 3 in the experiment with common lambsquartes [12]. In the experiment with cotton [28], the “Effects Cotton” value amounted to 1. Besides, the “Effects Soybean” value with soybean [14] amounted to 0; with soybean [7], 2. In addition, the “Effects Sugar beat” value in the experiment with sugar beat [15] and with sugar beat [8] was 5 each time. Further, the “Effects Corn” value is given as 0 in the experiment on corn [16] and 1 in the experiment with corn [9]. In addition, the results for the “Effects Wheat” value in the experiment on wheat [17] and in the experiment with wheat [10] were 0 and 1, respectively. The “Effects Solgum” value in the experiment on solgum [18] was found to be 0; in the experiment on solgum [11], 1. For the same molecule, the “Effects Green foxtail” value with green foxtail [19] was 5. Moreover, the “Effects Livid amaranth” value in the experiment with livid amaranth [21] and in the experiment on livid amaranth [2] was 5 in each case. The “Effects Morning glory” value with morning glory is recorded as 2. The “Effects Barnyardgrass” value with barnyardgrass [22] is listed as 2. The “Effects Velvetleaf” value in the experiment on velvetleaf [4] is on record as 3; with velvetleaf [27] it was 5. Besides, in the experiment with Large crabgrass [23], the “Effects Large crabgrass” value was determined as 5. Besides, the “Effects Annual bluegrass” value in the experiment on annual bluegrass [24] worked out at 5.
